Assay results published in publication PMC4052546 (Pharmaceuticals, 2011).
Where two headings read alike, the source gives them in different places.

How the values were obtained:
malaria parasites = details: incubation in vitro; cited from earlier work
[1] = Pharmacokinetics of AS and DHA in rat plasma after single and multiple intravenous AS injections (automated blood sampler, LC-MS/MS); assay type: in vivo, Sprague-Dawley rats; details: for Cmax / MRT / Tmax / clearance / AUC(0-t) / AUC / half-life / average plasma concentration over 0–72 h (Cav = AUC0–72 h/72): male, Sprague-Dawley, rat, plasma, iv; for AUC(0-t): read-out: AUC0–3 h; for AUC: read-out: AUCinfininty;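 as to all read-outs here: blood drawn through a jugular vein catheter by an automated sampling system, plasma drug levels measured by LC-MS/MS with positive electrospray ionization against standard curves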
Experimental: The Culex ABS is a blood sampling and metabolism monitoring machine, which is controlled by its own internal computer. We were successful in evaluating PK for long-term periods by using this system. After jugular vein cannulation, study animals were individually placed in the system, which allowed for a micro-pump to infuse heparinized-saline (10 unit heparin/mL saline) at a rate of 1-2 μL/min to prevent coagulation within the catheter. Culex samples were obtained with precise blood volumes from the study animals and the total volume taken was less than 6% per day and 14% during the entire study period. Blood samples were maintained at 3 °C using Culex's temperature-controlled fractional collector. Plasma was separated from the blood samples and processed for drug extraction.
(§1) Three samples were collected during each phase of absorption, distribution, or elimination for full PK analysis on the first and last dosing days following intravenous bonus injection. Additionally, trough levels (pre-dose) samples were collected in between each dose to follow drug accumulation and a series PK approach (18 samples per animal) was used. Thus, each animal was dosed and plasma samples were obtained for up to three days. A total of 18 (0, 5, 15, 30, 45 min, 1, 2, 3, 6, 24.25, 48.167, 48.25, 48.5, 48.75, 49, 50, 51, and 54 h) samples were collected into cooled vials. 50 μL of blood per sample was collected pre-dosing and after dosing and 100 μL per sample was taken from 0.08 h to 56 h after dosing. During collection, blood samples were added into the vials, which contained dried heparin (50 units) on the bottom of each vial. Thus, a total blood volume of 1.75 mL was obtained from each rat during the three day treatment period (0.85 mL of blood on day 0, 0.1 mL on day 1, and 0.9 mL on day 2), which is 9.3% of the animals total blood volume. Subjects for replicated crossover design were followed FDA recommendation [22] with a 2 week wash out period. During wash-out period, if the catheter was blocked up by any reasons the jugular vein tubes were infused or replaced.
The samples were vortexed vigorously (set at 10 or max setting) for 8–10 sec followed by a 10,000 × g centrifugation at 4 °C for 10 min. Aliquots (approximately 250 μL ea) of the undisturbed supernatants were transferred into a 96-well plate for LC-MS/MS analyses. […] Drugs were chromatographically separated using an acetonitrile/ammonium acetate gradient through a Waters XTerra C18 column (2.1 × 50 mm, 3.5 μm particle size) and corresponding pre-column. Quantification was done using the most abundant daughter ions following positive electrospray ionization. Chromatograms were analyzed using Xcalibur mass spectrometry software. The responses-concentrations standard curves were fitted and weighted.
The area under the curve (AUC) was determined by the linear trapezoidal rule with extrapolation to infinity based on the concentration of the last time point divided by the terminal rate constant. The bioequivalence (BE) evaluation of the two formulations were analyzed by using BE software (WinNonlin 5.2, Pharsight Co. Mountain View, CA. USA) in rats for a NDA application.

[2] = cited from earlier work
[3] = Hematology and recovery study after multiple intravenous AS; assay type: in vivo, rats
Experimental: At 24 and 96 h after the final dose of Chinese and WRAIR intravenous AS, male and female animals were anesthetized by isoflurane inhalation anesthesia (Abbott Labs, North Chicago, IL, USA) delivered by a small-animal anesthesia system (Euthanex Corp, Palmer Park, PA, USA). Each animal was initially placed in a chamber primed with 5% isoflurane, and upon induction, maintained in a non-rebreathing mask at 2% isoflurane delivered with […]. […] One mL of the blood sample was placed in K3 EDTA tubes (Beckton Dickinson, Franklin Lakes, NJ, USA) for CBC analysis using the ABX Pentra 60 hematology analyzer (ABX diagnostics, Irvine, CA, USA). Another 0.7 mL of blood was placed in serum separator tubes (Becton Dickinson, Franklin Lakes, NJ, USA) for biochemistry analysis using commercial assay kits on the Vitros 250 Chemistry analyzer (Johnson & Johnson, Rochester, NY, USA). Reticulocyte analysis was performed utilizing light microscopy. After sample collection, rats were euthanized by cervical dislocation.

parasitemia = tested on: parasitemia; parameters: method as in earlier work; details: intravenous AS, clinical trials; cited from earlier work
[4] = rat, in vivo
Text: An automated blood sampler (Culex ABS, Bioanalytical Systems, Inc. West Lafayette, IN) was used for rat blood sample collection.
as §1
The area under the curve (AUC) was determined by the linear trapezoidal rule with extrapolation to infinity based on the concentration of the last time point divided by the terminal rate constant.

[5] = Chinese formulation (AS/NaHCO3), 20 mg/kg i.v. daily for 3 days, male rats, Period 1, Day 3
[6] = Chinese formulation (AS/NaHCO3), 20 mg/kg i.v. daily for 3 days, male rats, Period 2, Day 3
[7] = WRAIR formulation (AS/0.3M PBS Buffer), 20 mg/kg i.v. daily for 3 days, male rats, Period 2, Day 3
[8] = 20 mg/kg, Chinese formulation (AS/NaHCO3), 20 mg/kg i.v. daily for 3 days, male rats, Period 1, Day 1
[9] = 20 mg/kg, Chinese formulation (AS/NaHCO3), 20 mg/kg i.v. daily for 3 days, male rats, Period 1, Day 3
[10] = 20 mg/kg, Chinese formulation (AS/NaHCO3), 20 mg/kg i.v. daily for 3 days, male rats, Period 2, Day 1
[11] = 20 mg/kg, Chinese formulation (AS/NaHCO3), 20 mg/kg i.v. daily for 3 days, male rats, Period 2, Day 3
[12] = 20 mg/kg, WRAIR formulation (AS/0.3M PBS Buffer), 20 mg/kg i.v. daily for 3 days, male rats, Period 1, Day 1
[13] = 20 mg/kg, WRAIR formulation (AS/0.3M PBS Buffer), 20 mg/kg i.v. daily for 3 days, male rats, Period 1, Day 3
[14] = 20 mg/kg, WRAIR formulation (AS/0.3M PBS Buffer), 20 mg/kg i.v. daily for 3 days, male rats, Period 2, Day 1
[15] = 20 mg/kg, WRAIR formulation (AS/0.3M PBS Buffer), 20 mg/kg i.v. daily for 3 days, male rats, Period 2, Day 3
[16] = male, Sprague-Dawley, iv, 20 mg/kg, 1 day

## C[C@H]1[C@H](OC(=O)CCC(=O)O)O[C@@H]2O[C@@]3(C)CC[C@H]4[C@H](C)CC[C@@H]1[C@@]24OO3 [AS, artesunate]
Malaria parasites
  time to completely inhibit parasite growth: 2 to 4 h
[1]; Chinese formulation (AS/NaHCO3), 20 mg/kg i.v. daily for 3 days, male rats, Period 1, Day 1
  AUC0–3 h: 867.5 ± 136.7 ng·h/mL
[1]; [5]
  AUC0–3 h: 614.2 ± 191.8 ng·h/mL
  Cmin: 4.35 ± 2.54 ng/mL
[1]; Chinese formulation (AS/NaHCO3), 20 mg/kg i.v. daily for 3 days, male rats, Period 2, Day 1
  AUC0–3 h: 932.6 ± 144.2 ng·h/mL
[1]; [6]
  AUC0–3 h: 665.4 ± 236.3 ng·h/mL
  Cmin: 3.35 ± 2.11 ng/mL
  Degree of Fluctuation = 100% × (Cmax − Cmin)/Cav: 1192 ± 219%
[1]; Chinese formulation, 20 mg/kg i.v., rats, period 1, day 1
  time at which Cmax was measured: 5 min
[1]; Chinese formulation, 20 mg/kg i.v., rats, period 2, day 1
  time at which Cmax was measured: 5 min
[1]; Chinese formulation, 20 mg/kg i.v., rats, period 2, day 3
  time at which Cmax was observed: 5 min
[1]; WRAIR formulation (AS/0.3M PBS Buffer), 20 mg/kg i.v. daily for 3 days, male rats, Period 1, Day 1, 20 mg/kg
  AUC0–3 h: 879.4 ± 167.4 ng·h/mL
[1]; WRAIR formulation (AS/0.3M PBS Buffer), 20 mg/kg i.v. daily for 3 days, male rats, Period 1, Day 3
  Cmin: 3.56 ± 0.85 ng/mL
[1]; WRAIR formulation (AS/0.3M PBS Buffer), 20 mg/kg i.v. daily for 3 days, male rats, Period 1, Day 3, 20 mg/kg
  AUC0–3 h: 611.1 ± 162.1 ng·h/mL
[1]; [7]
  Cmin: 3.87 ± 1.57 ng/mL
  Degree of Fluctuation = 100% X (Cmax − Cmin)/Cav: 1218 ± 172%
[1]; WRAIR formulation (AS/0.3M PBS Buffer), 20 mg/kg i.v. daily for 3 days, male rats, Period 2, Day 3, 20 mg/kg
  AUC0–3 h: 669.7 ± 159.3 ng·h/mL
[1]; WRAIR formulation, 20 mg/kg i.v., rats, period 1, day 1
  time at which Cmax was measured: 5 min
[1]; i.v. treatments in rats
  AS concentration on day 3 compared to day 1: one-third lower
[1]; [8]
  Cmax: 4300 ng/mL
  MRT: 15.6 ± 2.4 min
  Tmax: 4.98 min
  clearance: 380 ± 54.2 mL/min/kg
  AUC(0-t): 868 ng·h/mL
  AUC: 872 ± 138 ng·h/mL
[1]; 20 mg/kg, Chinese formulation (AS/NaHCO3), 20 mg/kg i.v. daily for 3 days, male rats, Period 1, Day 1, read-out: t1/2 distribution (converted)
  half-life: 3.6 ± 0.6 min
[1]; 20 mg/kg, Chinese formulation (AS/NaHCO3), 20 mg/kg i.v. daily for 3 days, male rats, Period 1, Day 1, read-out: t1/2 elimination (converted)
  half-life: 24 ± 4.2 min
[1]; [9]
  Cmax: 2460 ng/mL
  MRT: 17.4 ± 6 min
  Tmax: 4.98 min
  average plasma concentration over 0–72 h (Cav = AUC0–72 h/72): 204 ng·h/mL
  clearance: 570 ± 170 mL/min/kg
  AUC(0-t): 614 ng·h/mL
  AUC: 617 ± 193 ng·h/mL
[1]; 20 mg/kg, Chinese formulation (AS/NaHCO3), 20 mg/kg i.v. daily for 3 days, male rats, Period 1, Day 3, read-out: t1/2 distribution (converted)
  half-life: 6 ± 1.8 min
[1]; 20 mg/kg, Chinese formulation (AS/NaHCO3), 20 mg/kg i.v. daily for 3 days, male rats, Period 1, Day 3, read-out: t1/2 elimination (converted)
  half-life: 24.6 ± 6.6 min
[1]; [10]
  Cmax: 4140 ng/mL
  MRT: 15.6 ± 3 min
  Tmax: 4.98 min
  clearance: 360 ± 56.2 mL/min/kg
  AUC(0-t): 932 ng·h/mL
  AUC: 935 ± 144 ng·h/mL
[1]; 20 mg/kg, Chinese formulation (AS/NaHCO3), 20 mg/kg i.v. daily for 3 days, male rats, Period 2, Day 1, read-out: t1/2 distribution (converted)
  half-life: 4.8 ± 1.8 min
[1]; 20 mg/kg, Chinese formulation (AS/NaHCO3), 20 mg/kg i.v. daily for 3 days, male rats, Period 2, Day 1, read-out: t1/2 elimination (converted)
  half-life: 25.8 ± 4.2 min
[1]; [11]
  Cmax: 2540 ng/mL
  MRT: 15.6 ± 5.4 min
  Tmax: 4.98 min
  clearance: 562 ± 240 mL/min/kg
  AUC(0-t): 665 ng·h/mL
  AUC: 667 ± 238 ng·h/mL
[1]; 20 mg/kg, Chinese formulation (AS/NaHCO3), 20 mg/kg i.v. daily for 3 days, male rats, Period 2, Day 3, read-out: t1/2 distribution (converted)
  half-life: 7.2 ± 1.8 min
[1]; 20 mg/kg, Chinese formulation (AS/NaHCO3), 20 mg/kg i.v. daily for 3 days, male rats, Period 2, Day 3, read-out: t1/2 elimination (converted)
  half-life: 23.4 ± 7.8 min
[1]; [12]
  Cmax: 4030 ng/mL
  MRT: 18 ± 3.6 min
  Tmax: 4.98 min
  clearance: 378 ± 67.2 mL/min/kg
  AUC(0-t): 879 ng·h/mL
  AUC: 882 ± 167 ng·h/mL
[1]; 20 mg/kg, WRAIR formulation (AS/0.3M PBS Buffer), 20 mg/kg i.v. daily for 3 days, male rats, Period 1, Day 1, read-out: t1/2 distribution (converted)
  half-life: 4.8 ± 1.2 min
[1]; 20 mg/kg, WRAIR formulation (AS/0.3M PBS Buffer), 20 mg/kg i.v. daily for 3 days, male rats, Period 1, Day 1, read-out: t1/2 elimination (converted)
  half-life: 24.6 ± 1.8 min
[1]; [13]
  Cmax: 2430 ng/mL
  MRT: 16.2 ± 5.4 min
  Tmax: 4.98 min
  average plasma concentration over 0–72 h (Cav = AUC0–72 h/72): 204 ng·h/mL
  clearance: 559 ± 118 mL/min/kg
  AUC(0-t): 611 ng·h/mL
  AUC: 613 ± 163 ng·h/mL
[1]; 20 mg/kg, WRAIR formulation (AS/0.3M PBS Buffer), 20 mg/kg i.v. daily for 3 days, male rats, Period 1, Day 3, read-out: t1/2 distribution (converted)
  half-life: 6 ± 2.4 min
[1]; 20 mg/kg, WRAIR formulation (AS/0.3M PBS Buffer), 20 mg/kg i.v. daily for 3 days, male rats, Period 1, Day 3, read-out: t1/2 elimination (converted)
  half-life: 28.2 ± 6 min
[1]; [14]
  Cmax: 4210 ng/mL
  MRT: 16.8 ± 2.4 min
  Tmax: 4.98 min
  clearance: 387 ± 52.1 mL/min/kg
[1]; 20 mg/kg, WRAIR formulation (AS/0.3M PBS Buffer), 20 mg/kg i.v. daily for 3 days, male rats, Period 2, Day 1, read-out: t1/2 distribution (converted)
  half-life: 4.8 ± 0.6 min
[1]; 20 mg/kg, WRAIR formulation (AS/0.3M PBS Buffer), 20 mg/kg i.v. daily for 3 days, male rats, Period 2, Day 1, read-out: t1/2 elimination (converted)
  half-life: 26.4 ± 3.6 min
[1]; [15]
  Cmax: 2710 ng/mL
  MRT: 16.2 ± 3.6 min
  Tmax: 4.98 min
  clearance: 517 ± 162 mL/min/kg
  AUC(0-t): 670 ng·h/mL
  AUC: 673 ± 160 ng·h/mL
[1]; 20 mg/kg, WRAIR formulation (AS/0.3M PBS Buffer), 20 mg/kg i.v. daily for 3 days, male rats, Period 2, Day 3, read-out: t1/2 distribution (converted)
  half-life: 8.4 ± 1.2 min
[1]; 20 mg/kg, WRAIR formulation (AS/0.3M PBS Buffer), 20 mg/kg i.v. daily for 3 days, male rats, Period 2, Day 3, read-out: t1/2 elimination (converted)
  half-life: 32.4 ± 11.4 min
[2]
  elimination half-life (t1/2): 2 to 18 min
[2]; multiple oral treatments in malaria patients and healthy subjects
  Cmax and AUC values on the last dose day compared to the first day: reduced by one-third to one-seventh
[3]; 20 mg/kg AS intravenously, male and female rats, both formulations
  total reticulocyte counts: significant reductions
[3]; 20 mg/kg AS, 3 days post last dosing
  all hematological parameters after recovery period: reverted to normal
parasitemia
  time for parasitemia to fall by half: 3.18 h
[4]; [16]
  90% CI for T/R, Lower, AUCD1: 88.72%
  90% CI for T/R, Upper, AUCD1: 111.28%
[4]
  BE (bioequivalence), AUCD1: Yes
  BE (bioequivalence), Cmax D1: Yes
[4]; iv
  90% CI between the two intravenous formulations, AUC0–3 h: 88.72–111.28%
  90% CI for the difference between the two i.v. formulations, AUC1–3D: 87.65–112.35%
  90% CI of the difference between the two intravenous formulations, AUCD3: 82.30–117.69%
